{"source": "patent US9856210B2", "about": "“Pharmaceutical composition for prevention and treatment of amyotrophic lateral sclerosis” (Kyoto University, priority 2010, dated 2018)", "key": {"[1]": {"system": "human SOD1 (hSOD1) mRNA", "assay": "Human SOD1 mRNA in spinal cord of human SOD1 (G93A) transgenic mice (PCR)", "format": "in vivo, mouse", "settings": "60 mg/kg/day oral, 5 days a week for 4 weeks, vs solvent control; relative to β-actin (FIG. 4)", "method": "(§1) To 8-week-old human SOD1 (G93A) transgenic mice (The Jackson Laboratory) were orally administered sorafenib (60 mg/kg/day) dissolved in 95% ethanol and Cremophol EL or solvent alone as a control, each to 3 mice, 5 days a week for 4 weeks. After administration, the spinal cord was removed. Total RNA was extracted and human and mouse SOD1 mRNA amounts were measured by PCR."}, "[2]": {"system": "SOD1", "assay": "Western blotting of intracellular SOD1 in iPS cell-derived astrocytes", "format": "cell-based, human", "settings": "astrocytes from ALS patient iPS cells; 1 μM, 3 μM, 10 μM and 30 μM; 48 hours; β-actin internal standard (FIG. 3D)", "method": "A 4-mm skin biopsy was cultured for 3 weeks, and the resulting cells in culture were used as the fibroblasts derived from an ALS patient.\nHuman cDNAs for KLF4, Sox2, Oct3/4 and c-Myc were transferred to the above-described fibroblasts using a retrovirus, as described by Takahashi K et al. in Cell 131(5), 861, 2007. On day 6 after the gene transfer, the fibroblasts were transferred onto SNL feeder cells. The following day, the medium was replaced with a primate ES cell culture broth supplemented with 4 ng/ml of bFGF (Wako). The medium was exchanged every two days; 30 days after the gene transfer, colonies were picked up.\nNeurospheres were formed by a slightly modified version of the method described by Wada T et al. in PLoS ONE 4(8), e6722, 2009. […]\nThe iPS cell-derived astrocytes were seeded to a 6-well plate at a density of 250,000 cells/well. […] After the incubation, the amount expressed was detected by ECL (Enhanced ChemiLuminescence) using an HRP-linked anti-rabbit IgG antibody (1:5000; GE healthcare) and an HRP-linked anti-mouse IgG antibody (1:5000; GE healthcare)."}, "[3]": {"system": "mouse SOD1 (mSOD1) mRNA", "assay": "Mouse SOD1 mRNA in spinal cord of human SOD1 (G93A) transgenic mice (PCR)", "format": "in vivo", "settings": "60 mg/kg/day oral, 5 days a week for 4 weeks, vs solvent control; relative to β-actin (FIG. 4)", "method": "as §1"}}}
{"smiles": "CNC(=O)c1cc(Oc2ccc(NC(=O)Nc3ccc(Cl)c(C(F)(F)F)c3)cc2)ccn1", "note": "[sorafenib]", "values": [{"measurement": "human SOD1 mRNA amount in spinal cord", "setting": "[1]", "value": "significantly decreased"}, {"measurement": "expression of SOD1 (western blotting)", "setting": "[2]", "value": "a reduction in the expression of SOD1 was observed"}, {"measurement": "mouse SOD1 mRNA amount in spinal cord", "setting": "[3]", "value": "significantly decreased"}]}
